Structures are written as SMILES. Peptide text beside a SMILES is read from it.

From patent publication US10808018B2, “Erythropoietin-derived peptides and methods of protecting cells from oxidative damage induced by reactive oxygen species” (SYLUS CO., LTD., priority 2017, dated 2020) come the findings set out here.

This test concerns the target T1, Soluble mouse EPOR chimera proteins (erythropoietin receptor) (Mus musculus, UniProt P14753).
T1 construct: Soluble mouse EPOR chimera proteins; purchased R&D Systems
T1 sequence (P14753 25-249 limits assumed): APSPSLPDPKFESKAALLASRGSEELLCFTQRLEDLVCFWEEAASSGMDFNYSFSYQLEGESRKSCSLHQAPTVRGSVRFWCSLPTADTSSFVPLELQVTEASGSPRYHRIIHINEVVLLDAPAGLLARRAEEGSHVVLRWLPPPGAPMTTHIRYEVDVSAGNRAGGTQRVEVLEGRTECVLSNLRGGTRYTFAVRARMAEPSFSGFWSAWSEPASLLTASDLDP
Description: Surface plasmon resonance (SPR) binding affinity to erythropoietin receptor. The note with it: for Ka: association rate. The text has this: The SPR technique is to measure interactions between biomolecules in real-time by using an optical principle without specific labeling, and is a system analyzing affinity between two molecules and kinetics, i.e., an association rate (Ka) and a dissociation rate (Kd). In detail, real-time SPR analysis may be performed using Reichert SPR Biosensor SR […] instrument (Reichert Inc., NY, USA). Soluble mouse EPOR chimera proteins (R&D Systems, Minneapolis, Minn., USA) were covalently linked to a carboxymethylated dextran matrix-coated chip (BR-1005-39, Pharmacia Biosensor AB) by an amine coupling procedure using an amine coupling kit (BR-1000-50, GE Healthcare, USA) in accordance with manufacturer's instructions. Each 5 pM, 2.5 pM, and 1.25 pM of the peptide samples of the present disclosure and scrambled peptides were applied at a flow rate of 5 μl/minute, and the experiments were independently performed in duplicate. For signal normalization, DMSO was applied at a flow rate of 5 μl/minute. After each binding cycle, the sensor chip was regenerated by injecting 25 mM of acetic acid at a flow rate of 20 μl/minute.

In the case of `CSCC[C@H](NC(=O)[C@@H](NC(=O)[C@H](Cc1c[nH]cn1)NC(=O)[C@H](CO)NC(=O)[C@H](CC(C)C)NC(=O)[C@H](CC(C)C)NC(=O)CNC(=O)[C@H](CO)NC(=O)[C@@H](NC(=O)[C@H](CCCNC(=N)N)NC(=O)[C@H](CCCCN)NC(=O)[C@H](CC(C)C)NC(=O)[C@@H](NC(=O)[C@H](Cc1c[nH]cn1)NC(=O)[C@H](CC(C)C)NC(=O)[C@H](CCC(N)=O)NC(=O)[C@@H](N)CC(C)C)C(C)C)C(C)C)[C@@H](C)O)C(=O)N[C@@H](CC(C)C)C(=O)N[C@@H](CC(C)C)C(=O)N[C@@H](CCCCN)C(=O)N[C@@H](C)C(=O)N[C@@H](CC(C)C)C(=O)NCC(=O)O` [ML1-1] (H-LQLHVLKRVSGLLSHTMLLKALG-OH; N-terminus and C-terminus assumed), where the note is “Table 8”, the Ka is recorded as 5.55 × 10^3 and the “dissociation rate constant (koff)” value is listed as 5.9 × 10^−3.
On to `CC(C)C[C@H](NC(=O)CNC(=O)[C@H](CO)NC(=O)[C@@H](NC(=O)[C@H](C)NC(=O)[C@H](CCCCN)NC(=O)[C@H](CC(=O)O)NC(=O)[C@@H](NC(=O)[C@H](CCC(=O)O)NC(=O)[C@H](CC(C)C)NC(=O)[C@H](CC(=O)O)NC(=O)[C@@H](N)CC(C)C)C(C)C)C(C)C)C(=O)N[C@@H](CCCNC(=N)N)C(=O)N[C@@H](CO)C(=O)N[C@@H](CC(C)C)C(=O)N[C@H](C(=O)N[C@H](C(=O)N[C@@H](CC(C)C)C(=O)N[C@@H](CC(C)C)C(=O)N[C@@H](CCCNC(=N)N)C(=O)N[C@@H](C)C(=O)N[C@@H](CC(C)C)C(=O)NCC(=O)O)[C@@H](C)O)[C@@H](C)O` [ML1-C1] (H-LDLEVDKAVSGLRSLTTLLRALG-OH; N-terminus and C-terminus assumed), for which, for the setting “Table 9”, the Ka was 1745.7 and the “dissociation rate constant (koff)” value amounted to 0.2617.
In the same order, the values of `CC(C)C[C@H](NC(=O)CNC(=O)[C@H](CO)NC(=O)[C@@H](NC(=O)[C@H](CCCNC(=N)N)NC(=O)[C@H](CCCCN)NC(=O)[C@H](CC(=O)O)NC(=O)[C@@H](NC(=O)[C@H](Cc1c[nH]cn1)NC(=O)[C@H](CCCNC(=N)N)NC(=O)[C@H](CCC(N)=O)NC(=O)[C@@H](N)CC(C)C)C(C)C)C(C)C)C(=O)N[C@@H](CCCNC(=N)N)C(=O)N[C@@H](CO)C(=O)N[C@@H](CC(C)C)C(=O)N[C@H](C(=O)N[C@H](C(=O)N[C@@H](CC(C)C)C(=O)N[C@@H](CC(C)C)C(=O)N[C@@H](CCCNC(=N)N)C(=O)N[C@@H](C)C(=O)N[C@@H](CC(C)C)C(=O)NCC(=O)O)[C@@H](C)O)[C@@H](C)O` [ML1-C2] (H-LQRHVDKRVSGLRSLTTLLRALG-OH; N-terminus and C-terminus assumed) are 1.59E+03 and 0.01876.
For the molecule `CC(C)C[C@H](NC(=O)CNC(=O)[C@H](CCCCN)NC(=O)[C@@H](NC(=O)[C@H](CCCNC(=N)N)NC(=O)[C@H](CCCCN)NC(=O)[C@H](CCCCN)NC(=O)[C@@H](NC(=O)[C@H](Cc1c[nH]cn1)NC(=O)[C@H](CCCNC(=N)N)NC(=O)[C@H](CCC(N)=O)NC(=O)[C@@H](N)CC(C)C)C(C)C)C(C)C)C(=O)N[C@@H](CCCCN)C(=O)N[C@@H](CO)C(=O)N[C@@H](CC(C)C)C(=O)N[C@H](C(=O)N[C@H](C(=O)N[C@@H](CC(C)C)C(=O)N[C@@H](CC(C)C)C(=O)N[C@@H](CCCNC(=N)N)C(=O)N[C@@H](C)C(=O)N[C@@H](CC(C)C)C(=O)NCC(=O)O)[C@@H](C)O)[C@@H](C)O` [ML1-C3] (H-LQRHVKKRVKGLKSLTTLLRALG-OH; N-terminus and C-terminus assumed), where the note is “Table 9”, the Ka was 1104.9 and the “dissociation rate constant (koff)” value worked out at 0.01086.
Take `CC(C)C[C@H](NC(=O)CNC(=O)[C@H](CO)NC(=O)[C@@H](NC(=O)[C@H](C)NC(=O)[C@H](CCCCN)NC(=O)[C@H](CC(C)C)NC(=O)[C@@H](NC(=O)[C@H](Cc1c[nH]cn1)NC(=O)[C@H](CC(C)C)NC(=O)[C@H](CCC(N)=O)NC(=O)[C@@H](N)CC(C)C)C(C)C)C(C)C)C(=O)N[C@@H](CC(C)C)C(=O)N[C@H](C(=O)N[C@@H](Cc1c[nH]cn1)C(=O)N[C@H](C(=O)N[C@H](C(=O)N[C@@H](CC(C)C)C(=O)N[C@@H](CC(C)C)C(=O)N[C@@H](CCCCN)C(=O)N[C@@H](C)C(=O)N[C@@H](CC(C)C)C(=O)NCC(=O)O)[C@@H](C)O)[C@@H](C)O)[C@@H](C)O` [ML1-H1] (H-LQLHVLKAVSGLLTHTTLLKALG-OH; N-terminus and C-terminus assumed): where the note is “Table 9”, the Ka amounted to 1.01E+03 and the “dissociation rate constant (koff)” value came to 7.94E−03.
In the case of `CC[C@H](C)[C@H](NC(=O)[C@H](CCSC)NC(=O)[C@@H](NC(=O)[C@H](CC(C)C)NC(=O)[C@@H](NC(=O)[C@H](CC(C)C)NC(=O)[C@H](CC(C)C)NC(=O)CNC(=O)[C@H](CO)NC(=O)[C@@H](NC(=O)[C@H](C)NC(=O)[C@H](CCCCN)NC(=O)[C@H](CC(C)C)NC(=O)[C@@H](NC(=O)[C@H](Cc1c[nH]cn1)NC(=O)[C@H](CC(C)C)NC(=O)[C@H](CCC(N)=O)NC(=O)[C@@H](N)CC(C)C)C(C)C)C(C)C)[C@@H](C)O)[C@@H](C)O)C(=O)N[C@@H](CCCNC(=N)N)C(=O)N[C@@H](CCCNC(=N)N)C(=O)N[C@@H](C)C(=O)N[C@@H](CC(C)C)C(=O)NCC(=O)O` [ML1-H2] (H-LQLHVLKAVSGLLTLTMIRRALG-OH; N-terminus and C-terminus assumed), under “Table 9”, the Ka turned out to be 3434.3 and the “dissociation rate constant (koff)” value is reported as 1.05E−03.
Take `CC[C@H](C)[C@H](NC(=O)[C@H](CCSC)NC(=O)[C@H](C)NC(=O)[C@H](CC(C)C)NC(=O)[C@@H](NC(=O)[C@H](CCCNC(=N)N)NC(=O)[C@H](CC(C)C)NC(=O)CNC(=O)[C@H](C)NC(=O)[C@@H](NC(=O)[C@H](C)NC(=O)[C@H](CCCCN)NC(=O)[C@H](CC(C)C)NC(=O)[C@@H](NC(=O)[C@H](Cc1c[nH]cn1)NC(=O)[C@H](CC(C)C)NC(=O)[C@H](CCC(N)=O)NC(=O)[C@@H](N)CC(C)C)C(C)C)C(C)C)[C@@H](C)O)C(=O)N[C@@H](CCCNC(=N)N)C(=O)N[C@@H](CCCNC(=N)N)C(=O)N[C@@H](C)C(=O)N[C@@H](CC(C)C)C(=O)N[C@@H](C)C(=O)O` [ML1-H3] (H-LQLHVLKAVAGLRTLAMIRRALA-OH; N-terminus and C-terminus assumed): for the setting “Table 9”, the Ka is 4157.6 and the “dissociation rate constant (koff)” value stood at 4.77E−03.
As for `CC(C)C[C@H](NC(=O)CNC(=O)[C@H](CO)NC(=O)[C@@H](NC(=O)[C@H](C)NC(=O)[C@H](CCCCN)NC(=O)[C@H](CC(=O)O)NC(=O)[C@@H](NC(=O)[C@H](Cc1c[nH]cn1)NC(=O)[C@H](CC(C)C)NC(=O)[C@H](CCC(N)=O)NC(=O)[C@@H](N)CC(C)C)C(C)C)C(C)C)C(=O)N[C@@H](CCCNC(=N)N)C(=O)N[C@@H](CO)C(=O)N[C@@H](CC(C)C)C(=O)N[C@H](C(=O)N[C@H](C(=O)N[C@@H](CC(C)C)C(=O)N[C@@H](CC(C)C)C(=O)N[C@@H](CCCNC(=N)N)C(=O)N[C@@H](C)C(=O)N[C@@H](CC(C)C)C(=O)NCC(=O)O)[C@@H](C)O)[C@@H](C)O` [ML1] (H-LQLHVDKAVSGLRSLTTLLRALG-OH; N-terminus and C-terminus assumed), where the note is “Table 8”, the Kd is 6.46 µM, the Ka is recorded as 1.311 × 10^3 and the “dissociation rate constant (koff)” value is on record as 8.5 × 10^−3. For the same molecule, under “Table 9”, the Ka is given as 1310.8 and the “dissociation rate constant (koff)” value is given as 8.47E−03.
Take `CC(C)C[C@H](NC(=O)[C@H](CCC(=O)O)NC(=O)[C@H](CCCNC(=N)N)NC(=O)[C@H](CC(C)C)NC(=O)[C@H](CC(C)C)NC(=O)[C@H](CCCCN)NC(=O)[C@@H](NC(=O)[C@H](CC(C)C)NC(=O)[C@H](CO)NC(=O)[C@H](CCCNC(=N)N)NC(=O)[C@H](CC(C)C)NC(=O)CNC(=O)[C@H](CO)NC(=O)[C@H](CCC(=O)O)NC(=O)[C@H](C)NC(=O)[C@H](CCCCN)NC(=O)[C@H](CCC(N)=O)NC(=O)[C@@H](NC(=O)[C@H](Cc1c[nH]cn1)NC(=O)[C@@H](N)CCCNC(=N)N)C(C)C)[C@@H](C)O)C(=O)O` [ML2-1] (H-RHVQKAESGLRSLTKLLREL-OH; N-terminus and C-terminus assumed): for the setting “Table 8”, the Ka is 3.1 × 10^2 and the “dissociation rate constant (koff)” value is given as 4.1 × 10^−3.
For `CC(C)C[C@H](NC(=O)[C@H](C)NC(=O)[C@H](CCCNC(=N)N)NC(=O)[C@H](CC(C)C)NC(=O)[C@H](CC(C)C)NC(=O)[C@@H](NC(=O)[C@@H](NC(=O)[C@H](CC(C)C)NC(=O)[C@H](CO)NC(=O)[C@H](CCCNC(=N)N)NC(=O)[C@H](CC(C)C)NC(=O)CNC(=O)[C@H](CO)NC(=O)[C@@H](NC(=O)[C@H](C)NC(=O)[C@H](CCCCN)NC(=O)[C@H](CC(=O)O)NC(=O)[C@@H](NC(=O)[C@H](Cc1c[nH]cn1)NC(=O)[C@@H](N)CC(C)C)C(C)C)C(C)C)[C@@H](C)O)[C@@H](C)O)C(=O)O` [ML2] (H-LHVDKAVSGLRSLTTLLRAL-OH; N-terminus and C-terminus assumed), the “dissociation rate constant (koff)” value (Table 8) is recorded as 4.4 × 10^−3.
For `CC(C)[C@H](NC(=O)[C@H](CCCNC(=N)N)NC(=O)[C@@H](N)[C@@H](C)O)C(=O)N[C@@H](CC(N)=O)C(=O)N[C@@H](Cc1ccc(O)cc1)C(=O)N[C@@H](CCC(N)=O)C(=O)N[C@@H](C)C(=O)N[C@@H](Cc1c[nH]c2ccccc12)C(=O)N[C@@H](CCCCN)C(=O)N[C@@H](CCCNC(=N)N)C(=O)O` [ML3-1] (H-TRVNYQAWKR-OH; N-terminus and C-terminus assumed), where the note is “Table 8”, the Ka was 3.08 × 10^3 and the “dissociation rate constant (koff)” value is on record as 1.3 × 10^−2.
